Data as given in the SangsterLogP compilation.

**Q.** Which logP does the source give for `N#Cc1c[nH]cc1-c1cccc(Cl)c1Cl` here?
**A.** 3.78

**Q.** With `C=CCc1ccccc1OC[C@@H](O)CNC(C)C` as the molecule, how does the logP read?
**A.** 2.63

**Q.** For `CC1=C(C(=O)Nc2ccccc2)S(=O)(=O)CCO1`, which logP is on record?
**A.** 1.13

**Q.** Which logP does the source give for `CCCN(CCC)c1c([N+](=O)[O-])cc(C(F)(F)F)cc1[N+](=O)[O-]` here?
**A.** 4.98

**Q.** Which logP does the source give for `CC(C)(C)c1ccc(CCOc2ncnc3ccccc23)cc1` here?
**A.** 4.91

**Q.** For `C[C@H]1O[C@@H](O[C@H]2[C@@H](O)C[C@H](O[C@H]3[C@@H](O)C[C@H](O[C@H]4CC[C@@]5(C)[C@H](CC[C@@H]6[C@@H]5CC[C@]5(C)[C@@H](C7=CC(=O)OC7)CC[C@]65O)C4)O[C@@H]3C)O[C@@H]2C)C[C@H](O)[C@@H]1O`, which logP is on record?
**A.** 3.42

**Q.** For `CCOCn1c(-c2ccc(Cl)cc2)c(C#N)c(Br)c1C(F)(F)F`, which logP is on record?
**A.** 4.61

**Q.** With `CON=C1C[C@]2(C[C@@H]3C[C@@H](C/C=C(\C)C[C@@H](C)C=C/C=C4\CO[C@@H]5[C@H](O)C(C)=C[C@@H](C(=O)O3)[C@]45O)O2)O[C@H](/C(C)=C/C(C)C)[C@H]1C` as the molecule, how does the logP read?
**A.** 4.99

**Q.** For `COP(=S)(OC)SCC(=O)N(c1ccc(Cl)cc1)C(C)C`, which logP is on record?
**A.** 3.8

**Q.** With `CO/C=C(/C(=O)OC)c1ccccc1Oc1cc(Oc2ccccc2C#N)ncn1` as the molecule, how does the logP read?
**A.** 2.97

**Q.** For `Oc1ccc(Oc2ccccc2)cc1`, which logP is on record?
**A.** 3.92

**Q.** For `CN(C)CCC=C1c2ccccc2COc2ccccc21`, which logP is on record?
**A.** 3.75

**Q.** For `COc1ccc(-c2ccccc2)cc1NNC(=O)OC(C)C`, which logP is on record?
**A.** 3.8

**Q.** For `CC(C)N(C(=O)COc1nnc(C(F)(F)F)s1)c1ccc(F)cc1`, which logP is on record?
**A.** 3.19

**Q.** Which logP does the source give for `CCCCOCCOCCOCc1cc2c(cc1CCC)OCO2` here?
**A.** 4.39

**Q.** Which logP does the source give for `CC(C)C(C(=O)OC(C#N)c1cccc(Oc2ccccc2)c1)c1ccc(Cl)cc1` (stereo unspecified) here?
**A.** 5.71
